{"source": "ChEMBL document CHEMBL3885861", "about": "“Open TG-GATES”", "organism": "Rattus norvegicus", "assay": "Open TG-GATES - Regimen: Daily Repeat", "assay_type": "toxicity, organism-based, Sprague-Dawley", "parameters": "regimen Daily Repeat, gender Male, age 6 weeks", "details": "in vivo, iv, 300 mg/kg, route intravenous injection, dose level Low; for APTT / Bas / Eos / Fbg / Hb / Ht / Lym / MCH / MCHC / MCV / Mono / Neu / PT / Plat / RBC / Ret / WBC: tissue Blood", "key": {"[1]": {"details": "72 h, tissue Kidney, time 3 day"}, "[2]": {"details": "72 h, tissue Plasma, time 3 day"}}}
{"smiles": "CC(=O)OCC1=C(C(=O)O)N2C(=O)[C@@H](NC(=O)Cc3cccs3)[C@H]2SC1", "note": "[CEPHALOTHIN]", "values": [{"measurement": "TERMINAL_BW", "setting": "72 h, time 3 day", "value": 226.8, "unit": "g"}, {"measurement": "APTT", "setting": "72 h, time 3 day", "value": 22.4, "unit": "s"}, {"measurement": "Bas", "setting": "72 h, time 3 day", "value": 0, "unit": "%"}, {"measurement": "Eos", "setting": "72 h, time 3 day", "value": 1.2, "unit": "%"}, {"measurement": "Fbg", "setting": "72 h, time 3 day", "value": 291.2, "unit": "mg/dL"}, {"measurement": "Hb", "setting": "72 h, time 3 day", "value": 13.4, "unit": "g/dL"}, {"measurement": "Ht", "setting": "72 h, time 3 day", "value": 38.4, "unit": "%"}, {"measurement": "Lym", "setting": "72 h, time 3 day", "value": 84.4, "unit": "%"}, {"measurement": "MCH", "setting": "72 h, time 3 day", "value": 21.1, "unit": "pg"}, {"measurement": "MCHC", "setting": "72 h, time 3 day", "value": 35, "unit": "%"}, {"measurement": "MCV", "setting": "72 h, time 3 day", "value": 60.2, "unit": "fL"}, {"measurement": "Mono", "setting": "72 h, time 3 day", "value": 2.8, "unit": "%"}, {"measurement": "Neu", "setting": "72 h, time 3 day", "value": 10.6, "unit": "%"}, {"measurement": "PT", "setting": "72 h, time 3 day", "value": 16.2, "unit": "s"}, {"measurement": "Plat", "setting": "72 h, time 3 day", "value": 131.5, "unit": "x10_4/uL"}, {"measurement": "RBC", "setting": "72 h, time 3 day", "value": 636.8, "unit": "x10_4/ul"}, {"measurement": "Ret", "setting": "72 h, time 3 day", "value": 6, "unit": "%"}, {"measurement": "WBC", "setting": "72 h, time 3 day", "value": 103.7, "unit": "x10_2/uL"}, {"measurement": "KIDNEY_L", "setting": "[1]", "value": 1, "unit": "g"}, {"measurement": "KIDNEY_R", "setting": "[1]", "value": 1, "unit": "g"}, {"measurement": "KIDNEY_TOTAL", "setting": "[1]", "value": 1.9, "unit": "g"}, {"measurement": "LIVER", "setting": "72 h, tissue Liver, time 3 day", "value": 10.3, "unit": "g"}, {"measurement": "ALP", "setting": "[2]", "value": 1513.6, "unit": "IU/L"}, {"measurement": "ALT", "setting": "[2]", "value": 37.8, "unit": "IU/L"}, {"measurement": "AST", "setting": "[2]", "value": 68.2, "unit": "IU/L"}, {"measurement": "BUN", "setting": "[2]", "value": 15.6, "unit": "mg/dL"}, {"measurement": "CRE", "setting": "[2]", "value": 0.1, "unit": "mg/dL"}, {"measurement": "Ca", "setting": "[2]", "value": 10.7, "unit": "mg/dL"}, {"measurement": "Cl", "setting": "[2]", "value": 106, "unit": "meq/L"}, {"measurement": "DBIL", "setting": "[2]", "value": 0, "unit": "mg/dL"}, {"measurement": "GLC", "setting": "[2]", "value": 175.4, "unit": "mg/dL"}, {"measurement": "IP", "setting": "[2]", "value": 6.1, "unit": "mg/dL"}, {"measurement": "K", "setting": "[2]", "value": 4.6, "unit": "meq/L"}, {"measurement": "LDH", "setting": "[2]", "value": 166, "unit": "IU/L"}, {"measurement": "Na", "setting": "[2]", "value": 140.4, "unit": "meq/L"}, {"measurement": "PL", "setting": "[2]", "value": 140, "unit": "mg/dL"}, {"measurement": "RALB", "setting": "[2]", "value": 3.1, "unit": "g/dL"}, {"measurement": "TBIL", "setting": "[2]", "value": 0.008, "unit": "mg/dL"}, {"measurement": "TC", "setting": "[2]", "value": 75.8, "unit": "mg/dL"}, {"measurement": "TG", "setting": "[2]", "value": 106.4, "unit": "mg/dL"}, {"measurement": "TP", "setting": "[2]", "value": 5.5, "unit": "g/dL"}, {"measurement": "gamma-GTP", "setting": "[2]", "value": 1.6, "unit": "IU/L"}, {"measurement": "TERMINAL_BW", "setting": "[…], time 7 day", "value": 260.2, "unit": "g"}, {"measurement": "TERMINAL_BW", "setting": "[…], time 14 day", "value": 304.3, "unit": "g"}, {"measurement": "TERMINAL_BW", "setting": "[…], time 28 day", "value": 378.7, "unit": "g"}, {"measurement": "APTT", "setting": "[…], time 7 day", "value": 22.5, "unit": "s"}, {"measurement": "Bas", "setting": "[…], time 7 day", "value": 0, "unit": "%"}, {"measurement": "Eos", "setting": "[…], time 7 day", "value": 0.8, "unit": "%"}, {"measurement": "Fbg", "setting": "[…], time 7 day", "value": 310, "unit": "mg/dL"}, {"measurement": "Hb", "setting": "[…], time 7 day", "value": 13.5, "unit": "g/dL"}, {"measurement": "Ht", "setting": "[…], time 7 day", "value": 38.9, "unit": "%"}, {"measurement": "Lym", "setting": "[…], time 7 day", "value": 88.8, "unit": "%"}, {"measurement": "MCH", "setting": "[…], time 7 day", "value": 20.8, "unit": "pg"}, {"measurement": "MCHC", "setting": "[…], time 7 day", "value": 34.6, "unit": "%"}, {"measurement": "MCV", "setting": "[…], time 7 day", "value": 60.2, "unit": "fL"}, {"measurement": "Mono", "setting": "[…], time 7 day", "value": 1.6, "unit": "%"}, {"measurement": "Neu", "setting": "[…], time 7 day", "value": 7.8, "unit": "%"}, {"measurement": "PT", "setting": "[…], time 7 day", "value": 16.7, "unit": "s"}, {"measurement": "Plat", "setting": "[…], time 7 day", "value": 122.1, "unit": "x10_4/uL"}, {"measurement": "RBC", "setting": "[…], time 7 day", "value": 647, "unit": "x10_4/ul"}, {"measurement": "Ret", "setting": "[…], time 7 day", "value": 5.6, "unit": "%"}, {"measurement": "WBC", "setting": "[…], time 7 day", "value": 91, "unit": "x10_2/uL"}, {"measurement": "APTT", "setting": "[…], time 14 day", "value": 24.3, "unit": "s"}, {"measurement": "Bas", "setting": "[…], time 14 day", "value": 0, "unit": "%"}, {"measurement": "Eos", "setting": "[…], time 14 day", "value": 1, "unit": "%"}, {"measurement": "Fbg", "setting": "[…], time 14 day", "value": 257.6, "unit": "mg/dL"}, {"measurement": "Hb", "setting": "[…], time 14 day", "value": 14.4, "unit": "g/dL"}, {"measurement": "Ht", "setting": "[…], time 14 day", "value": 40.4, "unit": "%"}, {"measurement": "Lym", "setting": "[…], time 14 day", "value": 89.8, "unit": "%"}, {"measurement": "MCH", "setting": "[…], time 14 day", "value": 20.7, "unit": "pg"}, {"measurement": "MCHC", "setting": "[…], time 14 day", "value": 35.6, "unit": "%"}, {"measurement": "MCV", "setting": "[…], time 14 day", "value": 58.2, "unit": "fL"}, {"measurement": "Mono", "setting": "[…], time 14 day", "value": 1.8, "unit": "%"}, {"measurement": "Neu", "setting": "[…], time 14 day", "value": 6.8, "unit": "%"}, {"measurement": "PT", "setting": "[…], time 14 day", "value": 16.1, "unit": "s"}, {"measurement": "Plat", "setting": "[…], time 14 day", "value": 121.1, "unit": "x10_4/uL"}, {"measurement": "RBC", "setting": "[…], time 14 day", "value": 694, "unit": "x10_4/ul"}, {"measurement": "Ret", "setting": "[…], time 14 day", "value": 4.7, "unit": "%"}, {"measurement": "WBC", "setting": "[…], time 14 day", "value": 103.2, "unit": "x10_2/uL"}, {"measurement": "APTT", "setting": "[…], time 28 day", "value": 25.4, "unit": "s"}, {"measurement": "Bas", "setting": "[…], time 28 day", "value": 0, "unit": "%"}, {"measurement": "Eos", "setting": "[…], time 28 day", "value": 1.6, "unit": "%"}, {"measurement": "Fbg", "setting": "[…], time 28 day", "value": 293.8, "unit": "mg/dL"}, {"measurement": "Hb", "setting": "[…], time 28 day", "value": 15.4, "unit": "g/dL"}]}
